Values of other authors in patent US10717749B2, “Macrocyclic sulfondiimine compounds” (BAYER PHARMA AKTIENGESELLSCHAFT, priority 2015, dated 2020).

Details: in vivo; cited from earlier work

C[N+]1(C)[C@@H]2C[C@@H](OC(=O)C(O)(c3cccs3)c3cccs3)C[C@H]1[C@@H]1O[C@@H]12 [tiotropium]
duration of protection against bronchospasms: more than 6 hours
